From PubChem BioAssay AID2060329 (Molecular Pharmacology Branch, DTP, NCI, 2025)

Test system: MCF7 multi-cell spheroids with HUVEC/MSC, viability
Assay: Anticancer human tumor MCF7 cell line growth inhibition [IpAb];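 note: spheroids exposed to agents for seven days before readout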
Conditions: for IC50: curve of first compound; for viability, T/C: stronger effect = lower value
Summary of the method: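 Combinations with ipatasertib or abemaciclib were tested on tumour spheroids holding HUVEC (25%) and MSC (15%) alongside 60% malignant cells. Top concentration was at or near clinical Cmax (10 microM if undefined), descending in half-log steps.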

[1] = second compound 0.01 µM, first compound 0.00316 µM
[2] = second compound 0.01 µM, first compound 0.01 µM
[3] = second compound 0.01 µM, first compound 0.0316 µM
[4] = second compound 0.01 µM, first compound 0.1 µM
[5] = second compound 0.01 µM, first compound 0.316 µM
[6] = second compound 0.01 µM, first compound 1 µM
[7] = second compound 0.0316 µM, first compound 0.00316 µM
[8] = second compound 0.0316 µM, first compound 0.01 µM
[9] = second compound 0.0316 µM, first compound 0.0316 µM
[10] = second compound 0.0316 µM, first compound 0.1 µM
[11] = second compound 0.0316 µM, first compound 0.316 µM
[12] = second compound 0.0316 µM, first compound 1 µM
[13] = second compound 0.1 µM, first compound 0.00316 µM
[14] = second compound 0.1 µM, first compound 0.01 µM
[15] = second compound 0.1 µM, first compound 0.0316 µM
[16] = second compound 0.1 µM, first compound 0.1 µM
[17] = second compound 0.1 µM, first compound 0.316 µM
[18] = second compound 0.1 µM, first compound 1 µM
[19] = second compound 0.316 µM, first compound 0.00316 µM
[20] = second compound 0.316 µM, first compound 0.01 µM
[21] = second compound 0.316 µM, first compound 0.0316 µM
[22] = second compound 0.316 µM, first compound 0.1 µM
[23] = second compound 0.316 µM, first compound 0.316 µM
[24] = second compound 0.316 µM, first compound 1 µM
[25] = second compound 1 µM, first compound 0.00316 µM
[26] = second compound 1 µM, first compound 0.01 µM
[27] = second compound 1 µM, first compound 0.0316 µM
[28] = second compound 1 µM, first compound 0.1 µM
[29] = second compound 1 µM, first compound 0.316 µM
[30] = second compound 1 µM, first compound 1 µM

SMILES	IC50 (second compound 0.01 µM) [nM]	IC50 (second compound 0.0316 µM) [nM]	IC50 (second compound 0.1 µM) [nM]	IC50 (second compound 0.316 µM) [nM]	IC50 (second compound 1 µM) [nM]	viability, T/C [1] [%]	viability, T/C [2] [%]	viability, T/C [3] [%]	viability, T/C [4] [%]	viability, T/C [5] [%]	viability, T/C [6] [%]	viability, T/C [7] [%]	viability, T/C [9] [%]	viability, T/C [10] [%]	viability, T/C [15] [%]	viability, T/C [16] [%]	viability, T/C [21] [%]	viability, T/C [22] [%]	viability, T/C [27] [%]	viability, T/C [28] [%]	also measured
COc1c(OCCCN2CCOCC2)ccc2c3n(c(=NC(=O)c4cnc(N)nc4)nc12)CCN3 + CCN1CCN(Cc2ccc(Nc3ncc(F)c(-c4cc(F)c5nc(C)n(C(C)C)c5c4)n3)nc2)CC1	42.3	29.8	29.7	42	57.1	101	79.7	61.3	27.7	9.2	11.6	91.2	46.5	22.8	48.9	23.4	56.5	36.5	59	41	viability, T/C [8]: 82.2%; viability, T/C [11]: 7.69%; viability, T/C [12]: 11.1%; viability, T/C [13]: 99.2%; viability, T/C [14]: 78.8%; viability, T/C [17]: 8.37%; viability, T/C [18]: 9.47%; viability, T/C [19]: 93.1%; viability, T/C [20]: 73.5%; viability, T/C [23]: 17.9%; viability, T/C [24]: 15%; viability, T/C [25]: 94%; viability, T/C [26]: 66.7%; viability, T/C [29]: 36.6%; viability, T/C [30]: 18%
Cn1ncnc1[C@H]1c2n[nH]c(=O)c3cc(F)cc(c23)N[C@@H]1c1ccc(F)cc1 + CCN1CCN(Cc2ccc(Nc3ncc(F)c(-c4cc(F)c5nc(C)n(C(C)C)c5c4)n3)nc2)CC1	> 100	> 100	> 100	> 100	> 100	115	98.6	106	92.5	–	–	83.8	100	88.1	85.1	85.3	90.2	88.7	85.3	85.7	viability, T/C (second compound 0.01 µM, first compound 0.000316 µM): 95.3%; viability, T/C (second compound 0.01 µM, first compound 0.001 µM): 102%; viability, T/C (second compound 0.0316 µM, first compound 0.000316 µM): 98.6%; viability, T/C (second compound 0.0316 µM, first compound 0.001 µM): 107%; viability, T/C [8]: 89.4%; viability, T/C (second compound 0.1 µM, first compound 0.000316 µM): 114%; viability, T/C (second compound 0.1 µM, first compound 0.001 µM): 103%; viability, T/C [13]: 107%; viability, T/C [14]: 87.5%; viability, T/C (second compound 0.316 µM, first compound 0.000316 µM): 108%; viability, T/C (second compound 0.316 µM, first compound 0.001 µM): 106%; viability, T/C [19]: 93.4%; viability, T/C [20]: 97.4%; viability, T/C (second compound 1 µM, first compound 0.000316 µM): 100%; viability, T/C (second compound 1 µM, first compound 0.001 µM): 105%; viability, T/C [25]: 84.4%; viability, T/C [26]: 100%
CC1(C)CCC(CN2CCN(c3ccc(C(=O)NS(=O)(=O)c4ccc(NCC5CCOCC5)c([N+](=O)[O-])c4)c(Oc4cnc5[nH]ccc5c4)c3)CC2)=C(c2ccc(Cl)cc2)C1 + CCN1CCN(Cc2ccc(Nc3ncc(F)c(-c4cc(F)c5nc(C)n(C(C)C)c5c4)n3)nc2)CC1	7020	7010	6630	6290	5390	–	–	107	93.2	109	96.8	–	97.8	94.8	107	118	99.5	117	105	107	viability, T/C (second compound 0.01 µM, first compound 3.16 µM): 111%; viability, T/C (second compound 0.01 µM, first compound 10 µM): 26.4%; viability, T/C [11]: 94.9%; viability, T/C [12]: 91.5%; viability, T/C (second compound 0.0316 µM, first compound 3.16 µM): 104%; viability, T/C (second compound 0.0316 µM, first compound 10 µM): 29.2%; viability, T/C [17]: 102%; viability, T/C [18]: 106%; viability, T/C (second compound 0.1 µM, first compound 3.16 µM): 104%; viability, T/C (second compound 0.1 µM, first compound 10 µM): 20.1%; viability, T/C [23]: 116%; viability, T/C [24]: 104%; viability, T/C (second compound 0.316 µM, first compound 3.16 µM): 98.6%; viability, T/C (second compound 0.316 µM, first compound 10 µM): 17%; viability, T/C [29]: 101%; viability, T/C [30]: 92.7%; viability, T/C (second compound 1 µM, first compound 3.16 µM): 87.7%; viability, T/C (second compound 1 µM, first compound 10 µM): 9.36%
